According to patent publication US20170196987A1, “METHODS FOR TREATING MULTIPLE SCLEROSIS” (MedWell Laboratories Ltd., priority 2014, published 2017):

How the values were obtained:
[1] = test system: Experimental Autoimmune Encephalomyelitis (EAE) mice; assay: Efficacy of oral and ip MWL-001, MP and their combination in EAE (model of brain inflammation, MS), Example 2; type: in vivo, female C57Bl mice; conditions: for Inhibition of the clinical signs of the disease: day 0 to day 15
Procedure: Induction of EAE: Disease was induced in female C57Bl mice (6-8 weeks old; Harlan). Myelin Oligodendrocyte Glycoprotein (MOG 35-55) (Hadassah ein karem) was dissolved in saline (3 mg/ml) and emulsified (1:1) with Complete Freund's Adjuvant (CFA) (gibco; containing 5 mg of killed MT). 200 microliter of emulsion (containing […] of MOG) was injected into the right flank, and each mouse received a supplement of 250 ng of pertussis toxin (List) i.p. Another 250 ng of pertussis toxin (PT) were injected 24 hours later. Mice were observed daily from the 9th day post-EAE and the clinical signs were scored as described in Table III below.
MWL-001 was dissolved in ethanol (60 mg/ml), wherein in one group MWL-001 was administered ip and in a second group MWL-001 was administered orally by gavage at a dose of 50 mg/kg (10% stock in saline). The MWL-001 was administered once a day (from day 0) at 9 am. Treatment ended on day 15 post inoculation. Each dose was administered in a volume of 0.2 ml/mouse
A third group of animals was treated ip with a dose of 25 mg/kg starting on day 7 and ending on day 15
The number of animals in each of the above five groups was between 9 and 11.
Calculation of the incidence of disease: The number of sick animals in each group was summed and percentage of sick animals in each group calculated.
Calculation of the mean maximal score (MMS): The maximal scores of each of the 10 mice in the group were summed and the mean maximal score of each group was calculated as follows:Σ maximal score of each mouse / number of mice in the group.
Calculation of the group mean score (GMS): The scores of each of the 10 mice in the group was summed and the mean score per day calculated. The group mean score was calculated as follows: Σ total score of each mouse per day/number of mice in the group.

[2] = test system: Experimental Autoimmune Encephalomyelitis (EAE) mice; assay: Efficacy of conjugate MW001 in MOG 35-55 induced EAE (model of multiple sclerosis), Example 1; type: in vivo, female C57B1 mice
Procedure: Disease was induced in female C57B1 mice (6-8 weeks old; Harlan). Myelin Oligodendrocyte Glycoprotein (MOG) 35-55 was dissolved in saline (3 mg/ml) and emulsified (1:1) with Complete Freund's Adjuvant (CFA) (gibco; containing 5 mg of killed mycobacterium tuberculosis (MT). 200 μl of the emulsion (containing […] of MOG) were injected into the right flank of each mouse, wherein and each mouse received a 250 ng supplement of pertussis toxin (PT, List) by intraperitoneal injection. Another 250 ng of PT were injected into the right flank of each mouse 24 hours later. The mice were observed daily from the 9th day post-EAE and the clinical signs were scored as described in Table 1 below:
The MW-001 conjugate was dissolved in ethanol (60 mg/ml) and administered by intraperitoneal injection, at a dose of 50 mg/kg (10% stock in saline) twice a day, once at 9 am and once at […]. Each dose was administered in a volume of 0.2ml/mouse (˜20 g). One group of animals was treated starting at day 0 (relating to the first day on which the induction of the disease started) and the other starting at day 10, when clinical signs first appeared. […]
Calculation of the incidence of disease: The number of sick animals in each group was summed and percentage of sick animals in each group was calculated.
Calculation of the mean maximal score (MMS): The maximal scores of each of the 10 mice in the group was summed and the mean maximal score of each group was calculated as follows:Σmaximal score of each mouse/number of mice in the group.
Calculation of the group mean score (GMS):The scores of each of the 10 mice in the group was summed and the mean score per day calculated. The group mean score was calculated as follows: Σtotal score of each mouse per day/number of mice in the group.
Mean maximal score (MMS): defined as the disease severity; scored on a scale of 0-5 with graduations of 0.5 for intermediate clinical signs. The score is described in table-1

[3] = test system: spinal cord of EAE animal; assay: Histopathology of H&E stained spinal cord sections of EAE animals; type: in vivo, mice
Text: FIG. 5 (A, B and C) is a histopathological photograph of a spinal cord section stained with H&E of control untreated EAE animal. P=parenchymal infiltrates, M=meningeal infiltrates and D=diffused infiltrates.
FIG. 6 (A and B) is a histopathological photograph of a spinal cord section stained with H&E of EAE animal treated with MWL-001 (i.p.) on day 0.
FIG. 7 (A and B) is a histopathological photograph of a spinal cord section stained with H&E of EAE animal treated with MWL-001 (i.p.) on day 10.
Histopathological photographs are presented as FIGS. 5, 6 and 7).

[4] = MW-001 50 mg/kg ip twice a day, treatment started on day 0, monitored day 0 to day 20
[5] = MW-001 50 mg/kg ip twice a day, treatment started on day 10, monitored day 0 to day 20
[6] = MWL-001 i.p. treatment started at day 10, FIG. 7 A and B

## CC/C=C/C/C=C/C/C=C/C/C=C/C/C=C/C/C=C/CCC(=O)N1CC(O)CC1C(=O)O (stereo not shown) [MW-001]
[1]; 25 mg/kg ip, day 7 to day 15, 5 in the control group, FIG. 3
  Severity of disease (clinical score): 3
[1]; 25 mg/kg ip, day 7 to day 15, FIG. 3
  Inhibition of appearance of clinical signs: did not inhibit their appearance on day 10-11 post inoculation
[1]; 50 mg/kg once a day ip, FIG. 2
  Inhibition of the clinical signs of the disease: effective in inhibiting the clinical signs of the disease
[1]; 50 mg/kg once a day orally by gavage, FIG. 2
  Inhibition of the clinical signs of the disease: effective in inhibiting the clinical signs of the disease
[1]; 50 mg/kg once a day orally or ip, a few days after treatment ended on day 15, FIG. 2
  Clinical signs after cessation of the drug: mild signs of the disease appeared for a short period of time
[2]; 50 mg/kg ip twice a day, started on day 0 or day 10
  Effectiveness in preventing and ameliorating EAE (overall, vs untreated group): highly effective in preventing and ameliorating EAE in mice
[2]; [4]
  Disease incidence (sick mice/total): **1/10
  Mean day of onset: 15
  Mean disease duration: 0.6 ± 0.19 days
  Mean maximal score: 0.075 ± 0.02
  Mean score (whole group): 0.2 ± 0.06
[2]; [5]
  Incidence (#dead, including sacrificed): 11/11
  Mean day of onset: 11 ± 0.09
  Mean disease duration: 8.90 ± 0.2 days
  Mean maximal score: 2.72 ± 0.14
  Mean score (whole group): 1.34 ± 0.08
[3]; MWL-001 i.p. on Day 0, compared to untreated, FIG. 6 A and B
  Mononuclear cell infiltrates in the spinal cord (meningeal): very few meningeal infiltrates
[3]; [6]
  Mononuclear cell infiltrates in the spinal cord (meningeal): very few meningeal infiltrates
  Parenchymal or diffused infiltrates in the spinal cord: no parenchymal or diffused infiltrates
